Several values for one entry are separate records, joined by “and”; a condition that tells them apart may be missing. Equal values may be shown once.
Tests used:
[1] = test system: HEK 293T cells; test: Cytotoxicity, Alamar Blue colorimetric assay; type: cell-based
Method: Cytotoxicity measurements were performed using an Alamar Blue colorimetric assay. Each experiment was repeated at least three times. Cells were passaged using standard cell culture procedures. Cells were detached with trypsin and centrifuged (1000 rpm for 3 min). The supernatant was removed and the cells re-suspended in Dulbecco's Modified Eagle Medium (DMEM) at a concentration of 100,000 cells per mL. Cells were seeded at a concentration of 6,000 cells per well. For cytotoxicity measurements, […] of hydrogel made from short-peptide 4 (at 1% w/v and 2% w/v) and short peptides 11, 12, 13, and 16 (at 0.3, 0.6, and 1.0% w/v) were added in triplicate to a 96-well plate and allowed to set overnight. Surrounding wells were supplemented with water to ensure hydration of the gels. Gels were then incubated for 24 h with DMEM. Cells were seeded atop the hydrogels and incubated for 24 hours, before […] of Alamar Blue was added to the wells, followed by further incubation for 4 h. Control wells included cell-free gels, no hydrogels and a negative control of 15% (v/v) DMSO. The absorbances at 570 nm and 596 nm were recorded using a BioRad Benchmark plate reader.

[2] = Solubility in water; type: physicochemical; conditions: even with vigorous heating
Method: Nitrobenzene-appended short peptide 4 was not soluble in water even with vigorous heating. Therefore, NaOH (2 equivalents) was added to deprotonate the carboxylic acid group at the C-terminus of short peptide 4, generating a sodium carboxylate salt with increased solubility in water. The yellow suspension of short peptide 4 was sonicated for 5 minutes after the addition of alkali, resulting is dissolution and formation of a yellow solution.

[3] = Hydrogel formation, vial inversion test (critical gel concentration); type: physicochemical; conditions: solvent switch
[4] = test system: S. aureus 38; test: Antibacterial activity of cationic hydrogels, viable count method; type: cell-based, Staphylococcus aureus; conditions: hydrogel at 1% w/v in contact with S. aureus, compared to control
Method: (§1) The antibacterial activity of the anthranilamide-based cationic hydrogels 11-13 and 15-19 was investigated in vitro against S. aureus. The antibacterial activity of anthranilamide-based cationic hydrogel 11 was also investigated in vitro against E. coli.
(§2) First, a single colony of S. aureus 38 or E. coli K12 was grown in Luria-Bertani (LB) broth medium at 37° C. overnight. The resulting bacteria were harvested, via centrifugation, to obtain a bacteria pellet which was re-suspended in the same volume of LB medium, twice. The optical density (OD) value of the resulting culture was adjusted to 0.1 at 600 nm in LB (10^8 cfu·mL^−1). This bacteria solution was then further adjusted to 3×10^4 cfu mL^−1. (CFU or cfu=colony-forming unit). Bacteria solutions (1 mL), which contain either 10^8 CFUs/mL or 3×10^4 CFUs/mL, were gently added to hydrogel 11 at 1% w/v with total volume of 1 mL. Anthranilamide-based cationic hydrogels 11-13 and 15-19 (1 mL) were prepared at 1% w/v in glass vials as described above. On top of these pre-formed hydrogels, 1 mL of bacteria solution was carefully cast. […] As a negative control, a bacterial solution in the absence of hydrogel was used. After being incubated at 37° C. for 18 hours, 100 μL of bacteria solution in each vial was taken and subjected to serial dilution using phosphate buffer solution (PBS). 20 μL of each dilution were carefully transferred into nutrient agar plates and incubated for another 18 hours. The following day, bacterial growth inhibition was quantified using the viable count method. The experiment was performed twice in triplicate and multiple sample comparison was performed using one-way ANOVA at p<0.05.

[5] = test system: E. coli K12; test: Antibacterial activity of cationic hydrogel 11, viable count method; type: cell-based, Escherichia coli; conditions: hydrogel 11 at 1% w/v in contact with E. coli
Method: as §1
as §2, with “After being incubated at 37° C. for 18 hours, 100 μL of bacteria solution in each vial was taken and subjected to serial dilution using phosphate buffer solution (PBS). 20 μL of each dilution were carefully transferred into nutrient agar plates and incubated for another 18 hours.” left out, “The experiment was performed twice in triplicate and multiple sample comparison was performed using one-way ANOVA at p<0.05.” left out

[6] = Release of cationic short peptide from hydrogel (UV-Vis); type: physicochemical; conditions: hydrogel 1% w/v, PBS, 37° C.
Method: Hydrogel 11 was made at 1% w/v with a final volume of 1 mL. The resulting hydrogel was left to stand overnight at room temperature. Phosphate buffer solution (PBS, 1 mL) was added gently from the side wall to avoid physical fractures. Subsequently, the vial was incubated at 37° C., where 1 mL of PBS was sampled at each time point and replaced with fresh PBS. Samples were subjected to 10× dilution before analysis using UV-Vis spectroscopy. This experiment was performed in triplicate.

[7] = test system: S. aureus 38; test: Microdilution MBC of released fibers versus free compound; type: cell-based, Staphylococcus aureus
Method: To confirm their antibacterial efficacy, the released fibers from day 1 and day 9 were subjected to a standard microdilution protocol.
To further investigate their antibacterial activity, the released fibers from hydrogel 11 were tested against S. aureus 38. The solutions sampled from day 1 and day 9 were adjusted to obtained final concentrations of […]. Then, 100 μL of these solutions were transferred to a 96 well plate. […] 100 μL of each of these peptide solutions was also transferred to a 96 well plate.
Subsequently, 100 μL of a bacteria solution, adjusted to 10^6 CFUs/mL was added to each well. Two controls were used: one containing 100 μL of LB and 100 μL of PBS, and the other containing 100 μL of bacteria solution and 100 μL of PBS. The plate was then incubated at 37° C. for 24 hours. The following day, 20 μL solution from each well was subjected to a serial dilution then transferred onto agar plates followed by incubation at 37° C. for another 24 hours. MBC value was determined as the lowest concentration that inhibited S. aureus growth on the agar plate.

Row | SMILES | cell viability ([1]; hydrogel 4 at 1% w/v, compared to the control) | cell viability ([1]; hydrogel 4 at 2% w/v) | solubility in water [2] | Time (gelation time) ([3]; DMSO 5 % v/v) | Time (gelation time) ([3]; MeOH 5 % v/v) | bacterial reduction [4] [Log10] | bacteria reduction [5] | peptide released from hydrogel ([6]; 24 hours) | total peptide released ([6]; over 9 days) [%] | MBC ([7]; Staphylococcus aureus, 38, fibers in solution released from hydrogel 11, S. aureus, 24 hours, read-out: minimum bactericidal concentration (MBC)) [µM] | bacteria reduction ([7]; free compound (not hydrogel-formed) at 62 μM, S. aureus) [Log10 CFU/mL]
1 | O=C(Nc1ccccc1C(=O)N[C@@H](Cc1ccccc1)C(=O)N[C@@H](Cc1ccccc1)C(=O)O)c1ccc([N+](=O)[O-])c(C(F)(F)F)c1 [Compound 4, (2-(4-Nitro-3-(trifluoromethyl)benzamido)benzoyl)-L-phenylalanyl-L-phenylalanine] | more than 90% | A similar result was observed | not soluble | Immed. | Immed. |  |  |  |  |  | 
2 | NCCCNC(=O)[C@H](Cc1ccccc1)NC(=O)c1ccccc1NC(=O)c1ccc2ccccc2c1 [Compound 11] |  |  |  |  |  | 9.0 | 6.4 Log10 and 6.2 Log10 | 0.15 mg/mL and 221 μM | ~14 | 62 | < 1
